# Measured values published in PubChem BioAssay (NCI).
#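 Values below derive from 48-hour exposures of cells grown in 96-well plates, with endpoints linearly interpolated between the two concentrations bracketing the appropriate inhibition level. Definition used: TGI = concentration required for complete inhibition of growth.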
# Columns and labels:
# Test in all cases: NCI anticancer screen, dose series, 48 h
# NCI-H23 lung = system: NCI-H23 lung
# RPMI-8226 leukemia = system: RPMI-8226 leukemia
# K-562 leukemia = system: K-562 leukemia
# CCRF-CEM leukemia = system: CCRF-CEM leukemia
# HCT-116 colon = system: HCT-116 colon
# HOP-92 NSCLC = system: HOP-92 NSCLC
# SF-268 CNS = system: SF-268 CNS
# MALME-3M melanoma = system: MALME-3M melanoma
# TK-10 renal = system: TK-10 renal
# OVCAR-5 ovarian = system: OVCAR-5 ovarian
# RXF 393 renal = system: RXF 393 renal
# CAKI-1 renal = system: CAKI-1 renal
# OVCAR-4 ovarian = system: OVCAR-4 ovarian
# HCC-2998 colon = system: HCC-2998 colon
# M14 melanoma = system: M14 melanoma
# HS 578T breast = system: HS 578T breast
# MDA-MB-435 = system: MDA-MB-435
# EKVX NSCLC = system: EKVX NSCLC
# NCI-H460 lung = system: NCI-H460 lung
# IGROV1 ovarian = system: IGROV1 ovarian
# BT-549 breast = system: BT-549 breast
# UACC-62 melanoma = system: UACC-62 melanoma
# SK-MEL-28 melanoma = system: SK-MEL-28 melanoma
# SNB-19 CNS = system: SNB-19 CNS
# UO-31 renal = system: UO-31 renal
# COLO 205 colon = system: COLO 205 colon
# SK-MEL-5 melanoma = system: SK-MEL-5 melanoma
# A498 renal = system: A498 renal
# UACC-257 melanoma = system: UACC-257 melanoma
# SW-620 colon = system: SW-620 colon
# HOP-62 NSCLC = system: HOP-62 NSCLC
# DU-145 prostate = system: DU-145 prostate
# HCT-15 colon = system: HCT-15 colon
# T-47D breast = system: T-47D breast
# NCI/ADR-RES ovarian = system: NCI/ADR-RES ovarian
# U251 CNS = system: U251 CNS
# SN12C renal = system: SN12C renal
# SF-295 CNS = system: SF-295 CNS
# MCF7 breast = system: MCF7 breast
# NCI-H226 lung = system: NCI-H226 lung
# OVCAR-8 ovarian = system: OVCAR-8 ovarian
# SF-539 CNS = system: SF-539 CNS
# KM12 colon = system: KM12 colon
# SNB-75 CNS = system: SNB-75 CNS
# LOX IMVI melanoma = system: LOX IMVI melanoma
# OVCAR-3 ovarian = system: OVCAR-3 ovarian
# ACHN renal = system: ACHN renal
# SR leukemia = system: SR leukemia
# PC-3 prostate = system: PC-3 prostate
# MOLT-4 leukemia = system: MOLT-4 leukemia
# SK-OV-3 ovarian = system: SK-OV-3 ovarian
# HL-60(TB) leukemia = system: HL-60(TB) leukemia
# A549 NSCLC = system: A549 NSCLC
# SK-MEL-2 melanoma = system: SK-MEL-2 melanoma
# HT29 colon = system: HT29 colon
# MDA-N = system: MDA-N
# NCI-H522 lung = system: NCI-H522 lung
# 786-0 renal = system: 786-0 renal
# MDA-MB-231 breast = system: MDA-MB-231 breast
smiles,measurement,setting,value
c1ccc2cc(CN3CCC(C4CCN(Cc5ccc6ccccc6c5)CC4)CC3)ccc2c1,TGI,NCI-H23 lung,26.9 µM
same,TGI,RPMI-8226 leukemia,7.44 µM
same,TGI,K-562 leukemia,> 100 µM
same,TGI,CCRF-CEM leukemia,> 43.4 µM
same,TGI,HCT-116 colon,18.4 µM
same,TGI,HOP-92 NSCLC,12.2 µM
same,TGI,SF-268 CNS,25.8 µM
same,TGI,MALME-3M melanoma,3.71 µM
same,TGI,TK-10 renal,13.1 µM
same,TGI,OVCAR-5 ovarian,24.9 µM
same,TGI,RXF 393 renal,8.51 µM
same,TGI,CAKI-1 renal,15 µM
same,TGI,OVCAR-4 ovarian,21.7 µM
same,TGI,HCC-2998 colon,3.13 µM
same,TGI,M14 melanoma,3.71 µM
same,TGI,HS 578T breast,6.6 µM
same,TGI,MDA-MB-435,3.09 µM
same,TGI,EKVX NSCLC,29.6 µM
same,TGI,NCI-H460 lung,11 µM
same,TGI,IGROV1 ovarian,22.5 µM
same,TGI,BT-549 breast,27.4 µM
same,TGI,UACC-62 melanoma,3.91 µM
same,TGI,SK-MEL-28 melanoma,3.93 µM
same,TGI,SNB-19 CNS,27.2 µM
same,TGI,UO-31 renal,3.03 µM
same,TGI,COLO 205 colon,3.96 µM
same,TGI,SK-MEL-5 melanoma,3.38 µM
same,TGI,A498 renal,26.2 µM
same,TGI,UACC-257 melanoma,3.68 µM
same,TGI,SW-620 colon,15.6 µM
same,TGI,HOP-62 NSCLC,7.84 µM
same,TGI,DU-145 prostate,38.2 µM
same,TGI,HCT-15 colon,15.1 µM
same,TGI,T-47D breast,> 22.8 µM
same,TGI,NCI/ADR-RES ovarian,22.1 µM
same,TGI,U251 CNS,8.49 µM
same,TGI,SN12C renal,44.5 µM
same,TGI,SF-295 CNS,3.74 µM
same,TGI,MCF7 breast,8.66 µM
same,TGI,NCI-H226 lung,33.1 µM
same,TGI,OVCAR-8 ovarian,17.9 µM
same,TGI,SF-539 CNS,4.15 µM
same,TGI,KM12 colon,7.99 µM
same,TGI,SNB-75 CNS,6.8 µM
same,TGI,LOX IMVI melanoma,13.2 µM
same,TGI,OVCAR-3 ovarian,11.1 µM
same,TGI,ACHN renal,17 µM
same,TGI,SR leukemia,15.6 µM
same,TGI,PC-3 prostate,22.9 µM
same,TGI,MOLT-4 leukemia,33.3 µM
same,TGI,SK-OV-3 ovarian,22.4 µM
same,TGI,HL-60(TB) leukemia,4.45 µM
same,TGI,A549 NSCLC,17.1 µM
same,TGI,SK-MEL-2 melanoma,4.87 µM
same,TGI,HT29 colon,6.42 µM
same,TGI,MDA-N,3.91 µM
same,TGI,NCI-H522 lung,4.28 µM
same,TGI,786-0 renal,11.1 µM
same,TGI,MDA-MB-231 breast,22.1 µM
c1cc(-c2ccsc2-c2ccsc2)cs1,TGI,NCI-H23 lung,> 100 µM
same,TGI,RPMI-8226 leukemia,> 100 µM
same,TGI,K-562 leukemia,> 100 µM
same,TGI,CCRF-CEM leukemia,> 100 µM
same,TGI,HCT-116 colon,> 100 µM
same,TGI,HOP-92 NSCLC,> 100 µM
same,TGI,SF-268 CNS,> 100 µM
same,TGI,MALME-3M melanoma,> 100 µM
same,TGI,TK-10 renal,> 100 µM
same,TGI,OVCAR-5 ovarian,> 100 µM
same,TGI,RXF 393 renal,> 85.5 µM
same,TGI,CAKI-1 renal,> 100 µM
same,TGI,OVCAR-4 ovarian,> 100 µM
same,TGI,HCC-2998 colon,> 100 µM
same,TGI,M14 melanoma,> 100 µM
same,TGI,HS 578T breast,> 100 µM
same,TGI,MDA-MB-435,> 82.9 µM
same,TGI,EKVX NSCLC,> 100 µM
same,TGI,NCI-H460 lung,> 100 µM
same,TGI,IGROV1 ovarian,> 100 µM
same,TGI,BT-549 breast,> 100 µM
same,TGI,UACC-62 melanoma,> 100 µM
same,TGI,SK-MEL-28 melanoma,> 100 µM
same,TGI,SNB-19 CNS,> 100 µM
same,TGI,UO-31 renal,> 100 µM
same,TGI,COLO 205 colon,> 100 µM
same,TGI,SK-MEL-5 melanoma,> 100 µM
same,TGI,A498 renal,> 100 µM
same,TGI,UACC-257 melanoma,> 100 µM
same,TGI,SW-620 colon,> 100 µM
same,TGI,HOP-62 NSCLC,> 100 µM
same,TGI,DU-145 prostate,> 100 µM
same,TGI,HCT-15 colon,> 100 µM
same,TGI,T-47D breast,> 100 µM
same,TGI,NCI/ADR-RES ovarian,> 100 µM
same,TGI,U251 CNS,> 100 µM
same,TGI,SN12C renal,> 100 µM
same,TGI,SF-295 CNS,> 100 µM
same,TGI,MCF7 breast,> 100 µM
same,TGI,NCI-H226 lung,> 71.7 µM
same,TGI,OVCAR-8 ovarian,> 100 µM
same,TGI,SF-539 CNS,> 100 µM
same,TGI,KM12 colon,99.7 µM
same,TGI,SNB-75 CNS,> 100 µM
same,TGI,LOX IMVI melanoma,> 100 µM
same,TGI,OVCAR-3 ovarian,> 100 µM
same,TGI,ACHN renal,> 100 µM
same,TGI,SR leukemia,> 74.9 µM
same,TGI,PC-3 prostate,> 100 µM
same,TGI,MOLT-4 leukemia,> 89 µM
same,TGI,SK-OV-3 ovarian,> 100 µM
same,TGI,HL-60(TB) leukemia,> 100 µM
same,TGI,A549 NSCLC,> 100 µM
same,TGI,SK-MEL-2 melanoma,> 59.1 µM
same,TGI,HT29 colon,> 100 µM
same,TGI,MDA-N,> 72.5 µM
same,TGI,NCI-H522 lung,> 100 µM
same,TGI,786-0 renal,> 100 µM
same,TGI,MDA-MB-231 breast,> 100 µM
